Source: patent US20260217701A1, “SELECTIVE BET INHIBITORS AND USES THEREOF” (Tay Therapeutics Limited, priority 2022, published 2026)

Tested on: lupus
Experiment: SLE (lupus) model: proteinuria scores
Assay type: in vivo, MRL/MpJ-Faslpr mice
Conditions: for End proteinuria score ± SEM: end of study (Week 19)
Procedure: Female MRL/MpJ-Faslpr mice (The Jackson Laboratory) were used to assess the efficacy of Compound A in treating lupus. Starting when animals were 10 weeks of age, protein concentration in urine was measured using urine dipsticks.
At the start of the study, each group in the study had two animals that were 9 weeks old, and all others were 10 weeks old. Dosing of all animals with the test compounds began when the older animals were 11 weeks old. […] […] Dosing was at a consistent time each dosing day throughout the study.
Compound A may be formulated as illustrated in Experimental Method A (see Table 2E.). […] A stock solution of Compound A in DMSO (stock solution concentration of Compound A of 40 mg/mL) was prepared and aliquots for weekly preparations were frozen at −20° C. On each preparation day, a stock solution aliquot was thawed and diluted with other vehicle components to the desired concentration. Formulated Compound A and vehicle were at room temperature for dosing.
The study began when the older animals were 11 weeks old, and concluded when the older animals were 19 weeks old. Body weight was recorded once a week, with the exception of two weight measurements taken the first week of the study (when the older animals were 11 weeks old). Proteinuria was measured in the urine of animals with urine dipsticks once a week, starting when the older animals were 10 weeks old. […] Blood samples were taken retro-orbitally at the start of the study to establish a baseline (15 animals, 3 per group), and when the older animals were 16 weeks (all animals) and when animals were 19 weeks (all animals) at the conclusion of the study. Blood urea nitrogen (BUN) was measured in all animals at study termination in blood samples. After blood collection, animals were euthanized, perfused with PBS, and the left kidneys were collected and weighed and fixed in 10% buffered formalin. Left kidneys were then processed to a formalin-fixed, paraffin-embedded (FFPE) block, and histology was analyzed in Periodic Acid-Schiff-stained sections (1 section per slide), using the criteria described in Alperovich et al., Lupus, 16:18-24 (2007). Right kidneys were weighed and snap-frozen at −80° C. Spleens were also collected and weighed. SLE in animals treated with a BET inhibitor and vehicle.

## Cn1cc(-c2ccccc2)c(-c2cn(C)c(=O)c3[nH]c(-c4cnn(C(F)(F)F)c4)cc23)cc1=O [Compound A, 6-methyl-4-(1-methyl-2-oxo-5-phenyl-1,2-dihydropyridin-4-yl)-2-(1-(trifluoromethyl)-1H-pyrazol-4-yl)-1,6-dihydro-7H-pyrrolo[2,3-c]pyridin-7-one]
10 mg/kg, Week 19
  Proteinuria levels, lower than vehicle-treated group: about 74.8%
1, 3, 10 mg/kg
  Proteinuria levels: reduced proteinuria levels in a dose-dependent manner
Compound A 1 mg/kg PO QD, Week 10
  Mean proteinuria score: 1.96
Compound A 1 mg/kg PO QD, Week 11
  Mean proteinuria score: 1.96 +
Compound A 1 mg/kg PO QD, Week 12
  Mean proteinuria score: 2.29
Compound A 1 mg/kg PO QD, Week 13
  Mean proteinuria score: 2.57
Compound A 1 mg/kg PO QD, Week 14
  Mean proteinuria score: 2.79
Compound A 1 mg/kg PO QD, Week 15
  Mean proteinuria score: 3.07
Compound A 1 mg/kg PO QD, Week 16
  Mean proteinuria score: 2.82
Compound A 1 mg/kg PO QD, Week 17
  Mean proteinuria score: 3.07
Compound A 1 mg/kg PO QD, Week 18
  Mean proteinuria score: 3.11±
Compound A 1 mg/kg PO QD, Week 19
  Mean proteinuria score: 3.36
Compound A 1 mg/kg PO QD
  End proteinuria score ± SEM: 3.36 ± 0.19
Compound A 3 mg/kg PO QD, Week 10
  Mean proteinuria score: 1.96
Compound A 3 mg/kg PO QD, Week 11
  Mean proteinuria score: 1.96
Compound A 3 mg/kg PO QD, Week 12
  Mean proteinuria score: 2.04
Compound A 3 mg/kg PO QD, Week 13
  Mean proteinuria score: 2.50
Compound A 3 mg/kg PO QD, Week 14
  Mean proteinuria score: 2.46
Compound A 3 mg/kg PO QD, Week 15
  Mean proteinuria score: 2.85
Compound A 3 mg/kg PO QD, Week 16
  Mean proteinuria score: 2.65
Compound A 3 mg/kg PO QD, Week 17
  Mean proteinuria score: 2.77
Compound A 3 mg/kg PO QD, Week 18
  Mean proteinuria score: 2.73
Compound A 3 mg/kg PO QD, Week 19
  Mean proteinuria score: 3.04
Compound A 3 mg/kg PO QD
  End proteinuria score ± SEM: 3.04 ± 0.24
Compound A 10 mg/kg PO QD, Week 10
  Mean proteinuria score: 1.96
Compound A 10 mg/kg PO QD, Week 11
  Mean proteinuria score: 1.96
Compound A 10 mg/kg PO QD, Week 12
  Mean proteinuria score: 2.04
Compound A 10 mg/kg PO QD, Week 13
  Mean proteinuria score: 2.21
Compound A 10 mg/kg PO QD, Week 14
  Mean proteinuria score: 2.07
Compound A 10 mg/kg PO QD, Week 15
  Mean proteinuria score: 2.43
Compound A 10 mg/kg PO QD, Week 16
  Mean proteinuria score: 2.32
Compound A 10 mg/kg PO QD, Week 17
  Mean proteinuria score: 2.32
Compound A 10 mg/kg PO QD, Week 18
  Mean proteinuria score: 2.00
Compound A 10 mg/kg PO QD, Week 19
  Mean proteinuria score: 2.32
Compound A 10 mg/kg PO QD
  End proteinuria score ± SEM: 2.32 ± 0.15
